Patent publication US20240400591A1 (Jacobio Pharmaceuticals Co., Ltd., priority 2021, published 2024)

Biological target: T1, His-p53 Y220C (94-294) protein (Homo sapiens, UniProt P04637, Y220C)
T1 construct: His-p53 Y220C (94-294) protein
Assay: In vitro DNA binding assay (HTRF)
Assay type: biochemical
Conditions: % activation normalized to 2 μM Ref-1a high control

EC50	SMILES
38 nM	COc1cc(C(=O)N2CCN(C)CC2)ccc1NCC#Cc1sc2c(NC3CCN(C)CC3F)cccc2c1CC(F)(F)F (centres unmarked) [Example 49, (4-((3-(7-(((Z)-3-fluoro-1-methylpiperidin-4-yl)amino)-3-(2,2,2-trifluoroethyl)benzo[b]thiophen-2-yl)prop-2-yn-1-yl)amino)-3-methoxyphenyl)(4-methylpiperazin-1-yl)methanone]
102 nM	COc1cc(P(C)(C)=O)ccc1NCC#Cc1sc2c(N[C@H]3CCN(C)C[C@H]3Cl)cccc2c1CC(F)(F)F [Example 144, (3R,4S)-3-chloro-N-[2-[3-(4-dimethylphosphoryl-2-methoxy-anilino)prop-1-ynyl]-3-(2,2,2-trifluoroethyl)benzothiophen-7-yl]-1-methyl-piperidin-4-amine]
44 nM	COc1cc(S(C)(=O)=O)ccc1NCC#Cc1sc2c(NC3CCN(C)CC3F)cccc2c1CC(F)(F)F (centres unmarked) [Example 2, (Z)-3-fluoro-N-(2-(3-((2-methoxy-4-(methylsulfonyl)phenyl)amino)prop-1-yn-1-yl)-3-(2,2,2-trifluoroethyl)benzo[b]thiophen-7-yl)-1-methylpiperidin-4-amine]
96 nM	COc1cc(P(C)(C)=O)ccc1NCC#Cc1sc2c(N[C@@H]3CCN(C4CC(C)(C)OC(C)(C)C4)C[C@@H]3F)cccc2c1CC(F)(F)F [Example 181, (4-((3-(7-(((3S,4R)-3-fluoro-1-(2,2,6,6-tetramethyltetrahydro-2H-pyran-4-yl)piperidin-4-yl)amino)-3-(2,2,2-trifluoroethyl)benzo[b]thiophen-2-yl)prop-2-yn-1-yl)amino)-3-methoxyphenyl)dimethylphosphine oxide]
816 nM	CN1CC[C@@H](Nc2cccc3c(CC(F)(F)F)c(C#CCNc4cc(P(C)(C)=O)n[nH]4)sc23)[C@@H](F)C1 [Example 204, (5-((3-(7-(((3S,4R)-3-fluoro-1-methylpiperidin-4-yl)amino)-3-(2,2,2-trifluoroethyl)benzo[b]thiophen-2-yl)prop-2-yn-1-yl)amino)-1H-pyrazol-3-yl)dimethylphosphine oxide]
100 nM	COc1cc(S(N)(=O)=O)ccc1NCC#Cc1sc2c(NC3CCN(C)CC3)cccc2c1CC(F)(F)F [Example 23, 3-methoxy-4-((3-(7-((1-methylpiperidin-4-yl)amino)-3-(2,2,2-trifluoroethyl)benzo[b]thiophen-2-yl)prop-2-yn-1-yl)amino)benzenesulfonamide]
284 nM	COc1cc(S(C)(=O)=O)ccc1NCC#Cc1sc2c(NCC3CCN(C)CC3)cccc2c1CC(F)(F)F [Example 56, 2-(3-((2-methoxy-4-(methylsulfonyl)phenyl)amino)prop-1-yn-1-yl)-N-((1-methylpiperidin-4-yl)methyl)-3-(2,2,2-trifluoroethyl)benzo[b]thiophen-7-amine]
235 nM	COc1cc(S(C)(=O)=O)ccc1NCC#Cc1sc2c(NC3CC4CC3CN4C)cccc2c1CC(F)(F)F (centres unmarked) [Example 27, N-(2-(3-((2-methoxy-4-(methylsulfonyl)phenyl)amino)prop-1-yn-1-yl)-3-(2,2,2-trifluoroethyl)benzo[b]thiophen-7-yl)-2-methyl-2-azabicyclo[2.2.1]heptan-5-amine]
108 nM	CCP(=O)(CC)c1ccc(NCC#Cc2sc3c(N[C@@H]4CCN(C5CCOCC5)C[C@@H]4F)cccc3c2CC(F)(F)F)c(OC)c1 [Example 156, diethyl(4-((3-(7-(((3S,4R)-3-fluoro-1-(tetrahydro-2H-pyran-4-yl)piperidin-4-yl)amino)-3-(2,2,2-trifluoroethyl)benzo[b]thiophen-2-yl)prop-2-yn-1-yl)amino)-3-methoxyphenyl)phosphine oxide]
81 nM	COc1cc(S(C)(=O)=O)ccc1NCC#Cc1sc2c(NC3CCN(C)CC3)cccc2c1CC(F)(F)F [Example 3, N-(2-(3-((2-methoxy-4-(methylsulfonyl)phenyl)amino)prop-1-yn-1-yl)-3-(2,2,2-trifluoroethyl)benzo[b]thiophen-7-yl)-1-methylpiperidin-4-amine]
904 nM	COc1cc2c(cc1NCC#Cc1sc3c(N[C@@H]4CCN(C)C[C@@H]4F)cccc3c1CC(F)(F)F)CNS2(=O)=O (racemic) [Example 77, 5-((3-(7-(((Z)-3-fluoro-1-methylpiperidin-4-yl)amino)-3-(2,2,2-trifluoroethyl)benzo[b]thiophen-2-yl)prop-2-yn-1-yl)amino)-6-methoxy-2,3-dihydrobenzo[d]isothiazole 1,1-dioxide]
305 nM	COc1cc(S(C)(=O)=O)ccc1NCC#Cc1sc2c(NC3CCN(CCF)CC3)cccc2c1CC(F)(F)F [Example 36, 1-(2-fluoroethyl)-N-(2-(3-((2-methoxy-4-(methylsulfonyl)phenyl)amino)prop-1-yn-1-yl)-3-(2,2,2-trifluoroethyl)benzo[b]thiophen-7-yl)piperidin-4-amine]
220 nM	COc1nc(C(N)=O)ccc1NCC#Cc1sc2c(NC3CCN(C)CC3F)cccc2c1CC(F)(F)F (centres unmarked) [Example 63, 5-((3-(7-(((Z)-3-fluoro-1-methylpiperidin-4-yl)amino)-3-(2,2,2-trifluoroethyl)benzo[b]thiophen-2-yl)prop-2-yn-1-yl)amino)-6-methoxypicolinamide]
38 nM	CCP(=O)(CC)c1ccc(NCC#Cc2sc3c(NC4CCN(C)CC4F)cccc3c2CC(F)(F)F)c(OC)c1 (centres unmarked) [Example 35, diethyl(4-((3-(7-(((Z)-3-fluoro-1-methylpiperidin-4-yl)amino)-3-(2,2,2-trifluoroethyl)benzo[b]thiophen-2-yl)prop-2-yn-1-yl)amino)-3-methoxyphenyl)phosphine oxide]
404 nM	COCCN1CC[C@@H](Nc2cccc3c(CC(F)(F)F)c(C#CCNc4ccc(P(C)(C)=O)cc4OC)sc23)[C@@H](F)C1 (racemic) [Example 88, (4-((3-(7-(((Z)-3-fluoro-1-(2-methoxyethyl)piperidin-4-yl)amino)-3-(2,2,2-trifluoroethyl)benzo[b]thiophen-2-yl)prop-2-yn-1-yl)amino)-3-methoxyphenyl)dimethylphosphine oxide]

Continued, compound first:

SMILES	EC50
COc1cc(S(C)(=O)=O)c(F)cc1NCC#Cc1sc2c(NC3CCN(C)CC3)cccc2c1CC(F)(F)F [Example 7, N-(2-(3-((5-fluoro-2-methoxy-4-(methylsulfonyl)phenyl)amino)prop-1-yn-1-yl)-3-(2,2,2-trifluoroethyl)benzo[b]thiophen-7-yl)-1-methylpiperidin-4-amine]	200 nM
CN1CCC(Nc2cccc3c(CC(F)(F)F)c(C#CCNc4ccc(S(C)(=O)=O)c5cc[nH]c45)sc23)CC1 [Example 31, N-(3-(7-((1-methylpiperidin-4-yl)amino)-3-(2,2,2-trifluoroethyl)benzo[b]thiophen-2-yl)prop-2-yn-1-yl)-4-(methylsulfonyl)-1H-indol-7-amine]	535 nM
COc1cc(S(=O)(=O)NCC(O)CO)ccc1NCC#Cc1sc2c(NC3CCN(C)CC3)cccc2c1CC(F)(F)F (centres unmarked) [Example 24, N-(2,3-dihydroxypropyl)-3-methoxy-4-((3-(7-((1-methylpiperidin-4-yl)amino)-3-(2,2,2-trifluoroethyl)benzo[b]thiophen-2-yl)prop-2-yn-1-yl)amino)benzenesulfonamide]	56 nM
COc1cc(S(C)(=O)=O)ccc1NCC#Cc1sc2c(NC3CC4(CCN(C)CC4)C3)cccc2c1CC(F)(F)F [Example 33, N-(2-(3-((2-methoxy-4-(methylsulfonyl)phenyl)amino)prop-1-yn-1-yl)-3-(2,2,2-trifluoroethyl)benzo[b]thiophen-7-yl)-7-methyl-7-azaspiro[3.5]nonan-2-amine]	621 nM
COCCOc1cc(S(C)(=O)=O)ccc1NCC#Cc1sc2c(NC3CCN(C)CC3)cccc2c1CC(F)(F)F [Example 14, N-[2-[3-[2-(2-methoxyethoxy)-4-methylsulfonyl-anilino]prop-1-ynyl]-3-(2,2,2-trifluoroethyl)benzothiophen-7-yl]-1-methyl-piperidin-4-amine]	199 nM
COc1cc(S(C)(=O)=O)ccc1NCC#Cc1sc2c(N[C@H]3CC[C@H](N4CC5(COC5)C4)CC3)cccc2c1CC(F)(F)F [Example 17, trans-N-(4-(2-oxa-6-azaspiro[3.3]heptan-6-yl)cyclohexyl)-2-(3-((2-methoxy-4-(methylsulfonyl)phenyl)amino)prop-1-yn-1-yl)-3-(2,2,2-trifluoroethyl)benzo[b]thiophen-7-amine]	72 nM
COc1cc(S(C)(=O)=O)ccc1NCC#Cc1sc2c(NC3CC4CC3CN4)cccc2c1CC(F)(F)F (centres unmarked) [Example 28, N-(2-(3-((2-methoxy-4-(methylsulfonyl)phenyl)amino)prop-1-yn-1-yl)-3-(2,2,2-trifluoroethyl)benzo[b]thiophen-7-yl)-2-azabicyclo[2.2.1]heptan-5-amine]	284 nM
CN1CCC(Nc2cccc3c(CC(F)(F)F)c(C#CCNc4ccc(S(N)(=O)=O)cc4)sc23)CC1 [Example 4, 4-((3-(7-((1-methylpiperidin-4-yl)amino)-3-(2,2,2-trifluoroethyl)benzo[b]thiophen-2-yl)prop-2-yn-1-yl)amino) benzenesulfonamide]	99 nM
COc1cc(P(C)(C)=O)ccc1NCC#Cc1sc2c(NC3CCN(C)CC3)ccnc2c1CC(F)(F)F [Example 71, (3-methoxy-4-((3-(7-((1-methylpiperidin-4-yl)amino)-3-(2,2,2-trifluoroethyl)thieno[3,2-b]pyridin-2-yl)prop-2-yn-1-yl)amino)phenyl)dimethylphosphine oxide]	1030 nM
COc1cc(P(C)(C)=O)ccc1NCC#Cc1sc2c(NC[C@@]34CCCN3C[C@H](F)C4)cccc2c1CC(F)(F)F [Example 70, (4-((3-(7-((((2R,7aS)-2-fluorotetrahydro-1H-pyrrolizin-7a(5H)-yl)methyl)amino)-3-(2,2,2-trifluoroethyl)benzo[b]thiophen-2-yl)prop-2-yn-1-yl)amino)-3-methoxyphenyl)dimethylphosphine oxide]	229 nM
COCCCN1CCC(Nc2cccc3c(CC(F)(F)F)c(C#CCNc4ccc(S(C)(=O)=O)cc4OC)sc23)CC1 [Example 20, N-[2-[3-(2-methoxy-4-methylsulfonyl-anilino)prop-1-ynyl]-3-(2,2,2-trifluoroethyl)benzothiophen-7-yl]-1-(3-methoxypropyl)piperidin-4-amine]	188 nM
